What was measured:
[1] = biological target: T1, βA(1-40) amyloid aggregates (Homo sapiens, UniProt P05067); assay: Competition assay with Thioflavin T (ThT) for binding to β(1-40) amyloid aggregates, fluorescence 96-well plate; conditions: 20 μM ThT, 5 μg/well fibrils, 25 mM sodium phosphate pH 6.0, room temperature; read-out: βA(1-40), IC50
T1 construct: lyophilized β(1-40) protein powder (which may be purchased from BACHEM); purchased BACHEM
Source text: Amyloid aggregates containing β(1-40) protein can also be made by methods well known to those skilled in the art. See, for example, Burdick D., Soreghan B., Kwon M., Kosmoski J., Knauer M., Henschen A., Yates J., Cotman C., and Glabe C. Assembly and aggregation properties of synthetic Alzheimer's A4/β amyloid peptide analogs. J. Biol. Chem., 267:546-554 (1992), which is hereby incorporated by reference. Briefly, lyophilized β(1-40) protein powder (which may be purchased from BACHEM) was dissolved at 10 mg/mL in hexafluoro-2-propanol and subsequently diluted to 500 μg/mL in 25 mM sodium phosphate buffer, pH 6 to induce the α-helix to β-sheet transition resulting in aggregate formation.
(§1) The ability of compounds of Formula I to compete with Thioflavin T (ThT) for binding to amyloid aggregates was measured using fluorescence in a 96-well fluorescence plate assay. As a compromise between sensitivity and signal and to facilitate comparisons between different amyloid fibrils, ThT is present at a concentration equal to the Kmapp of the particular amyloid fibril type and fibril concentrations yielding a similar fluorescence intensity are used. Insulin: 0.5 μM ThT, 2 μg per well. β(1-40): 20 μM ThT, 5 μg/well. All solutions are in 25 mM sodium phosphate buffer, pH 6.0, and the assay is performed at room temperature.
(§2) Using a multichannel pipettor, 100 μL of dilutions of the compound to be tested (0.001-30 μM final concentration in 3-fold steps) are placed in the bottom of Corning U-well polystyrene plates (Corning Company, Corning, N.Y.). 50 μL of ThT are then added to each well. The amyloid fibrils are then added to each well in a volume of 100 μL rapidly to mix the well contents. The plates are read within 5 to 30 minutes in a Millipore Cytofluor 2350 96-well fluorescence plate reader using an excitation filter of 440 nm (20 nm bandpass) and an emission filter of 485 nm (20 nm bandpass). ThT dye blanks were used to correct for the minimal fluorescence background which are subtracted from all data.
(§3) Results are expressed as % maximal fluorescence (no competing compound). […]

[2] = biological target: Insulin amyloid aggregates; assay: Competition assay with Thioflavin T (ThT) for binding to insulin amyloid aggregates, fluorescence 96-well plate; conditions: 0.5 μM ThT, 2 μg per well fibrils, 25 mM sodium phosphate pH 6.0, room temperature
Description: Burke M. J. and Rougevie M. A., Cross-β Protein Structures. I. Insulin Fibrils. […] Briefly, lyophilized insulin protein powder dissolved at 10 mg/mL in 50 mM HCl was alternately heated to 95° C. and frozen in dry ice to form amyloid aggregates.
as §1
as §2, with “The plates are read within 5 to 30 minutes in a Millipore Cytofluor 2350 96-well fluorescence plate reader using an excitation filter of 440 nm (20 nm bandpass) and an emission filter of 485 nm (20 nm bandpass).” left out
as §3

T1 sequence (P05067 672-711 limits assumed): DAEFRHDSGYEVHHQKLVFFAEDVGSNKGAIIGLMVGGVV

IC50 [1] | IC50 [2] | SMILES
1300 nM | 60 nM | CN(C)c1ccc(N=Nc2sc3ccccc3[n+]2C)cc1 [Example 54, 2-[[4-(Dimethylamino)phenyl]azo]-3-methylbenzothiazolium methylsulfate]
200 nM | 210 nM | CN(C)c1ccc(/C=C/c2sc3ccccc3[n+]2CCCc2ccccc2)cc1 [Example 31, (E)-2-[2-(4-Dimethylaminophenyl)vinyl]-3-(3-phenylpropyl)benzothiazol-3-ium iodide]
160 nM | 42 nM | CCCCCCC[n+]1c(/C=C/c2ccc(N3CCCC3)cc2)sc2ccccc21 [Example 46, (E)-3-Heptyl-2-[2-[(4-pyrrolidin-1-yl)phenyl]vinyl]benzothiazol-3-ium iodide]

— patent US6001331A, “Method of imaging amyloid deposits” (Warner-Lambert Company, priority 1998, dated 1999)
